Entries after “also recorded” stand apart in the source; their conditions may differ. Like-named read-outs stand apart in the source and are kept apart here. Non-standard residues stand in square brackets, D forms with d. Residues, ends and D or L forms follow the SMILES beside them. *: point of attachment. Sta = CC(C)C[C@H](N)[C@@H](O)CC(=O)O; Isovaleryl = CC(C)CC(=O)*
What was measured:
gastric ulcer = settings: cited from earlier work
[1] = daily oral doses of 700 mg for up to three months; Svendsen et al. 1976; cited from earlier work
duodenal ulcer = settings: cited from earlier work
pepsin [2] = settings: in the stomach; U.S. Pat. No. 4,101,650; cited from earlier work
[3] = tested on: stomach ulcers in the pylorus ligated (Shay) rat; test: Ulcer formation in the pylorus ligated (Shay) rat; format: in vivo; settings: 18 hour pylorus ligated rat, 20 mg/kg po, previous studies in applicant's laboratories
pepsin [4] = test: Pepsin activity in the 18 hour pylorus ligated rat; format: in vivo; settings: 20 mg/kg po
[5] = tested on: stomach ulcers in the pylorus ligated (Shay) rat; settings: Umezawa et al. 1970; cited from earlier work
[6] = all animal species studied; Svendsen et al. 1976; cited from earlier work
pepsin [7] = settings: cited from earlier work
[8] = Absorption and fecal excretion after oral administration; format: in vivo, animals
stress ulceration = settings: two or more days of pretreatment; Strauss et al. 1977; cited from earlier work
gastric acid secretion [9] = settings: cited from earlier work
histamine H2 -receptor = histamine H2 -receptor (Homo sapiens, UniProt P25021); settings: Cavanagh et al. 1980; cited from earlier work
[10] = tested on: meal stimulated gastric acid secretion; settings: patients with inactive duodenal ulcers; Myers and Peterson 1980; cited from earlier work
[11] = Toxicity profile in pharmacological studies in animals; format: in vivo
gastric acid secretion [12] = test: Inhibitory effect on gastric acid secretion versus pepsin activity; settings: in vivo
[13] = tested on: gastric erosions produced in rats by the oral instillation of 1.0 ml of 0.75 N HCl; test: HCl-induced gastric erosions in rats (modified method of Robert et al.); format: in vivo, rat (Long Evans)
Method: In the tests described below, gastric erosions produced in rats by the oral instillation of 1.0 ml of 0.75 N HCl were compared with those in rats which had been pretreated with etintidine or with etintidine and pepstatin.
A modification of the method of Robert et al., [Gastroenterology, 77, 433-443 (1979)] was employed to produce gastric erosions. Adult male, Long Evans rats weighing 280-300 g (Blue Spruce Farms, Alton, New York) were used. The animals were individually caged and food and water were removed 24 and 18 hours, respectively, prior to testing. On the following day, etintidine was administered orally to the animals 30 minutes before 1.0 ml of 0.75 N HCl was instilled into the stomach by gavage. […]
The stomachs were removed from the animals, cut along the greater curvature, opened, rinsed with saline and pinned out flat in a standard position for macroscopic examination and scoring of erosions. The stomachs were photographed with a Polaroid® Close Up camera (Polaroid Corporation) and scoring was determined from the photographs. […]
Data were analyzed using the t-test for unpaired data and ED50 values were calculated from dose response data using probit analysis [Finney, Probit Analysis, 3rd ed., University Press, Cambridge, England (1971)]. […]

[14] = British Medical Journal review 1980
[15] = patients with ulcer dyspepsia, Svendsen et al. 1976

histamine H2 -receptor, sequence (P25021 whole entry, species assumed): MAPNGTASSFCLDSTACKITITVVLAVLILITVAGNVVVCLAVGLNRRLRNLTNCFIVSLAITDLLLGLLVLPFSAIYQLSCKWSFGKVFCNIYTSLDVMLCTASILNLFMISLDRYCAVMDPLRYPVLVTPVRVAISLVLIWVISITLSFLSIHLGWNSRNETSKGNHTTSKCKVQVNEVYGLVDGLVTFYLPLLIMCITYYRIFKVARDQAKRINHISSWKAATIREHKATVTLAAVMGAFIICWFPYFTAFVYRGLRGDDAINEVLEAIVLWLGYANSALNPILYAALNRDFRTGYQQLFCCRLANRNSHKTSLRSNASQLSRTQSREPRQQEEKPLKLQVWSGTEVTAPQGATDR

Molecule: CC(C)CC(=O)N[C@H](C(=O)N[C@H](C(=O)N[C@@H](CC(C)C)[C@@H](O)CC(=O)N[C@@H](C)C(=O)N[C@@H](CC(C)C)[C@@H](O)CC(=O)O)C(C)C)C(C)C [pepstatin] (Isovaleryl-VV[Sta]A[Sta]-OH)
- healing or symptomatology of gastric ulcer versus placebo (gastric ulcer; 100 mg seven times a day, double-blind randomized trial, Svendsen et al. 1979): not able to detect any influence of pepstatin
- side effects [1]: no side effects were observed
- healing or symptomatology of duodenal ulcer versus placebo (duodenal ulcer; 100 mg seven times a day, double-blind randomized trial, Bonnevie et al. 1979): no significant difference between pepstatin and placebo
- benefit / healing in patients with duodenal ulcer (duodenal ulcer; [14]): ineffective
- preventing recurrent bleeding in patients admitted with haematemesis and melaena (duodenal ulcer; [14]): ineffective
- duration of pepsin suppression (pepsin [2]): about 1 hours
- ulcer formation [3]: antagonized ulcer formation
- pepsin activity (pepsin [4]): completely inhibited pepsin activity
- formation of stomach ulcers [5]: prevent the formation of stomach ulcers
- LD50 [6]: exceeded 3000 mg/kg
- gastric acidity (pepsin [7]; [15]): no effect on the gastric acidity
- gastric peptic activity (pepsin [7]; [15]): inhibits gastric peptic activity
- duration of inhibition of peptic activity of gastric juice (pepsin [7]; ulcer patients, 100 mg doses seven times a day): 18 hours a day
- absorption upon oral administration [8]: essentially unabsorbed; also recorded: only poorly absorbed
- fraction of compound excreted in the feces ([8]; animal studies, within 72 hours): more than 90%

Molecule: CC1(C)[C@@H](OC(=O)CCC(=O)O)CC[C@]2(C)[C@H]3C(=O)C=C4[C@@H]5C[C@@](C)(C(=O)O)CC[C@]5(C)CC[C@@]4(C)[C@]3(C)CC[C@@H]12 [carbenoxolone]
- ulcer formation (stress ulceration): significantly decreased ulcer formation

Molecule: CN/C(=N/CCSCc1nc[nH]c1C)NC#N [cimetidine]
- ulcer formation (stress ulceration): significantly decreased ulcer formation
- effect on pepsin secretion (gastric acid secretion [9]; Binder and Donaldson 1978): less marked
- basal and stimulated gastric acid secretion (gastric acid secretion [9]; normal volunteers, Burland et al. 1975): antagonize both basal and stimulated gastric acid secretion
- basal and stimulated gastric acid secretion (gastric acid secretion [9]; patients with duodenal ulcer, Longstreth et al. 1976): antagonize both basal and stimulated gastric acid secretion

Molecule: Amylopectin
- benefit / healing in patients with duodenal ulcer (duodenal ulcer; [14]): no significant benefit

Molecule: C#CCN/C(=N\C#N)NCCSCc1nc[nH]c1C [etintidine]
- potency relative to cimetidine (histamine H2 -receptor): about twice as potent as cimetidine
- meal stimulated gastric acid secretion [10]: effectively antagonizes meal stimulated gastric acid secretion
- toxicity [11]: relatively nontoxic
- toxicity profile compared with cimetidine [11]: substantially the same as that of the commercial H2 -antagonist cimetidine
- inhibitory effect on gastric acid secretion compared with pepsin activity (gastric acid secretion [12]): significantly greater than on pepsin activity
- ED50 for inhibition of gastric erosions ([13]; etintidine po 30 min before 1.0 ml 0.75 N HCl, combination also received pepstatin 20 mg/kg po 10 min before HCl, FIG. 2): 62 mg/kg
- formation of gastric erosions ([13]; pretreatment with 17.5, 35, 70 or 140 mg/kg etintidine po): decreased the formation of gastric erosions in a dose-related manner

Molecule: sucralfate
- benefit in patients with gastric ulcer (gastric ulcer; [14]): none
